US20220064105A1, “CRYSTALLINE EDG-2 RECEPTOR ANTAGONIST AND METHODS OF MAKING” (Sanofi, priority 2020, published 2022)
In brackets after ≈: the same amount, converted by molar mass. Marks after values point to notes of the source that are not given here.

Experiments:
[1] = Solubility of Compound I in solvents at room temperature (about 25° C.); format: physicochemical; settings: thermodynamic from solid
Protocol: Compound I was dissolved in a variety of solvents at room temperature (about 25° C.) to provide solutions of Compound I with a maximum concentration of 10 mg/mL. The input material in these experiments was a mixture of polymorphic forms 1, 2, and 3.
The maximum concentration used in this set of experiments was 10 mg/mL. Solubility was highest in THF at >10 mg/mL. […] The solubility was estimated at less than 2 mg/mL for: 1-butanol, butyl acetate, hexane, ethanol, ethyl acetate, isobutyl alcohol, 1-pentanol, isopropanol, acetonitrile, dichloromethane, chloroform, and water.

[2] = Estimated hot solubility in solvents at elevated temperature (approximately solvent boiling point); format: physicochemical; settings: thermodynamic from solid, read-out: Hot Solubility (est)
Protocol: Compound I was dissolved in a variety of solvents at elevated temperature (approximately at solvent boiling point) to provide solutions of Compound I with a maximum concentration of 15 mg/mL. The input material in these experiments was a mixture of polymorphic forms 1, 2, and 3.
When concentrations of Compound I was greater than 2 mg/mL, the solutions were filtered and evaporated at 25° C. to isolate the solid.

[3] = tested on: mouse model of skin fibrosis; settings: cited from earlier work
[4] = tested on: patients with diffuse cutaneous systemic sclerosis SSc (dcSSc); settings: cited from earlier work
[5] = Slurry stability study at room temperature (25° C.), 4 weeks, resulting form by FTIR; format: physicochemical; settings: for Final form after slurry: 25° C., 4 weeks, FTIR
Protocol: Slurry stability Maturation studies were initially conducted for the purpose of identifying the most […] stable form at room temperature (25° C.).
In this set of experiments, both the individual forms and mixtures of forms were slurried in several solvents for 4 weeks, then filtered and analyzed to determine the resulting form. The first set of experiments included pure Form 1, Form 2, Form 3, and mixtures of these forms in equal amounts. The solvents included methanol, ethyl acetate, MEK, and methyl THF in order to investigate a range of solvent polarity. Additional experiments were conducted with a mixture of Form 1 and Form 4 in MEK and methanol.
Analysis was performed by FTIR due to ease of analysis for small quantities. It is interesting to note that the acid carbonyl is shifted to a different location for each polymorph. The results for the first set of experiments are listed below, comparing the starting form with the final form.

[6] = Slurry conversion studies at 40-70° C. with Forms 1 and 2; format: physicochemical
Protocol: Slurry conversation studies were also conducted at 40-70° C. with Forms 1 and 2 to determine a transition temperature between the forms. A mixture of Form 1 and Form 2 at a (1:1 ratio) was slurried at 40° C., 50° C., 60° C., and 70° C. in two different solvents at each temperature and then analyzed to determine the direction of transformation. At 40° C. and 50° C., Methanol and MEK were used. At 60° C. and 70° C. MEK and 1-Pentanol were used.

[7] = Dynamic vapor sorption (DVS); format: physicochemical; settings: 25° C.
Protocol: Moisture sorption/desorption isotherms are recorded on a DVS-1 from SURFACE MEASUREMENT SYSTEMS. Two cycles are run at 25° C., in which the Relative Humidity (RH) is stepped from 0 to 95% and back to 0%. The data is evaluated with the software DVSWin V. 2.15.

[8] = Physical stability of solid state forms at 80° C./75% RH, by FTIR; format: physicochemical; settings: 1 week (7 days), open glass vials
Protocol: The physical stability of Forms 1, 2, and 3 was investigated at 80° C./75% RH in order to determine if interconversion was observed. The samples were examined by FTIR after stressing 1 week in open glass vials.

[9] = Solubility of polymorphs at pH 7.4 in phosphate buffer at 25° C.; format: physicochemical; settings: pH 7.4 phosphate buffer; for Concentration (equilibrium solubility): 24 hr
Protocol: The solubility of the different polymorphs was determined at pH 7.4 in phosphate buffer at 25° C. Samples were analyzed as a function of time for each form to determine the equilibrium values. The residual solids from each sample were analyzed to verify that the form was unchanged during the experiment. The concentration (mg/mL) versus time data is listed below for each form: […]

[10] = slurried in 1-pentanol at 60° C.
[11] = slurried in 1-pentanol at 70° C.

COc1ccc(C(=O)NC2(C(=O)O)Cc3ccccc3C2)cc1OCCc1cccc(C)c1 [Compound I, 2-(4-methoxy-3-(3-methylphenethoxy)benzamido)-2,3-dihydro-1H-indene-2-carboxylic acid]
solubility ([1]; organic solvent or mixture, 1-butanol, read-out: Solubility (estimated)): < 2000 µg/mL | solubility ([1]; organic solvent or mixture, 1-pentanol, read-out: Solubility (estimated)): < 2000 µg/mL | solubility ([1]; organic solvent or mixture, MEK, read-out: Solubility): 4000 to 6000 µg/mL (≈ 8.98 to 13.5 mM) | solubility ([1]; organic solvent or mixture, THF, read-out: Solubility): > 10000 µg/mL | solubility ([1]; organic solvent or mixture, acetone, read-out: Solubility): 4000 to 6000 µg/mL (≈ 8.98 to 13.5 mM) | solubility ([1]; organic solvent or mixture, acetonitrile, read-out: Solubility (estimated)): < 2000 µg/mL | solubility ([1]; organic solvent or mixture, butyl acetate, read-out: Solubility (estimated)): < 2000 µg/mL | solubility ([1]; organic solvent or mixture, chloroform, read-out: Solubility (estimated)): < 2000 µg/mL | solubility ([1]; organic solvent or mixture, dichloromethane, read-out: Solubility (estimated)): < 2000 µg/mL | solubility ([1]; organic solvent or mixture, ethanol, read-out: Solubility (estimated)): < 2000 µg/mL | solubility ([1]; organic solvent or mixture, ethyl acetate, read-out: Solubility (estimated)): < 2000 µg/mL | solubility ([1]; organic solvent or mixture, hexane, read-out: Solubility (estimated)): < 2000 µg/mL | solubility ([1]; organic solvent or mixture, isobutyl alcohol, read-out: Solubility (estimated)): < 2000 µg/mL | solubility ([1]; organic solvent or mixture, isopropanol, read-out: Solubility (estimated)): < 2000 µg/mL | solubility ([1]; organic solvent or mixture, methanol, read-out: Solubility): 2000 to 3000 µg/mL (≈ 4.49 to 6.73 mM) | solubility ([1]; water, read-out: Solubility (estimated)): < 2000 µg/mL | solubility ([2]; 40 °C, organic solvent or mixture, Dichloromethane (DCM)): < 4000 µg/mL | solubility ([2]; 56 °C, organic solvent or mixture, Acetone): > 10000 µg/mL | solubility ([2]; 61 °C, organic solvent or mixture, Chloroform): 4000 to 5000 µg/mL (≈ 8.98 to 11.2 mM) | solubility ([2]; 65 °C, organic solvent or mixture, Methanol): > 10000 µg/mL | solubility ([2]; 69 °C, organic solvent or mixture, Hexane): < 2000 µg/mL | solubility ([2]; 77 °C, organic solvent or mixture, Ethyl Acetate): 5000 to 10000 µg/mL (≈ 11.2 to 22.4 mM) | solubility ([2]; 78 °C, organic solvent or mixture, Ethanol): > 10000 µg/mL | solubility ([2]; 80 °C, organic solvent or mixture, Methyl Ethyl Ketone (MEK)): > 15000 µg/mL | solubility ([2]; 82 °C, organic solvent or mixture, 2-Propanol): 7000 to 10000 µg/mL (≈ 15.7 to 22.4 mM) | solubility ([2]; 82 °C, organic solvent or mixture, Acetonitrile): 7000 to 10000 µg/mL (≈ 15.7 to 22.4 mM) | solubility ([2]; 100 °C, Water): < 2000 µg/mL | solubility ([2]; 108 °C, organic solvent or mixture, Isobutyl Alcohol): > 10000 µg/mL | solubility ([2]; 118 °C, organic solvent or mixture, 1-Butanol): > 10000 µg/mL | solubility ([2]; 126 °C, organic solvent or mixture, Butyl Acetate): ~10000 µg/mL (≈ 22.4 mM) | solubility ([2]; 138 °C, organic solvent or mixture, 1-Pentanol): > 10000 µg/mL | Collagen content [3]: reduced collagen content | Dermal thickening [3]: reversed dermal thickening | Myofibroblast differentiation [3]: significantly inhibited myofibroblast differentiation | Outcome measures [4]: improved outcome measures | Target engagement [4]: demonstrated target engagement | Tolerability [4]: well tolerated

COc1ccc(C(=O)NC2(C(=O)O)Cc3ccccc3C2)cc1OCCc1cccc(C)c1 [Form 1, 2-(4-methoxy-3-(3-methylphenethoxy)benzamido)-2,3-dihydro-1H-indene-2-carboxylic acid]
Relative stability of the crystal forms ([5]; room temperature (25° C.), from slurry data set): most stable form | Final form after slurry ([5]; slurried in MEK): Form 1 | Final form after slurry ([5]; slurried in ethyl acetate): Form 1 | Final form after slurry ([5]; slurried in methanol): Form 1 | Final form after slurry ([5]; slurried in methyl THF): Form 1 | Resulting form after slurry [6, 10]: converts to crystalline Form 2 | Resulting form after slurry [6, 11]: converts to crystalline Form 2 | Resulting form after slurry ([6]; slurried in MEK at 60° C.): converts to crystalline Form 2 | Resulting form after slurry ([6]; slurried in MEK at 70° C.): converts to crystalline Form 2 | Reversible water uptake [7]: less than 1% | Change in FTIR spectrum after storage [8]: unchanged FTIR | Concentration (solubility) ([9]; 1 hr): 42 µg/mL | Concentration (solubility) ([9]; 2 hr): 41 µg/mL | Concentration (solubility) ([9]; 3 hr): 42 µg/mL | Concentration (equilibrium solubility) [9]: 0.042 mg/mL

COc1ccc(C(=O)NC2(C(=O)O)Cc3ccccc3C2)cc1OCCc1cccc(C)c1 [Form 2, 2-(4-methoxy-3-(3-methylphenethoxy)benzamido)-2,3-dihydro-1H-indene-2-carboxylic acid]
Final form after slurry ([5]; slurried in MEK): converts to crystalline Form 1 | Final form after slurry ([5]; slurried in ethyl acetate): Form 2 | Final form after slurry ([5]; slurried in methanol): Form 2 | Final form after slurry ([5]; slurried in methyl THF): Form 2 | Resulting form after slurry ([6]; slurried in MEK at 40° C.): converts to crystalline Form 1 | Resulting form after slurry ([6]; slurried in MEK at 50° C.): converts to crystalline Form 1 | Resulting form after slurry ([6]; slurried in methanol at 40° C.): converts to crystalline Form 1 | Resulting form after slurry ([6]; slurried in methanol at 50° C.): converts to crystalline Form 1 | Change in FTIR spectrum after storage [8]: unchanged FTIR | 24 hour solubility greater than Form 1 ([9]; 24 hours): more than 30% | Concentration (solubility) ([9]; 1 hr): 34 µg/mL | Concentration (solubility) ([9]; 2 hr): 39 µg/mL | Concentration (solubility) ([9]; 3 hr): 43 µg/mL | Concentration (equilibrium solubility) [9]: 0.057* mg/mL

COc1ccc(C(=O)NC2(C(=O)O)Cc3ccccc3C2)cc1OCCc1cccc(C)c1 [Form 3, 2-(4-methoxy-3-(3-methylphenethoxy)benzamido)-2,3-dihydro-1H-indene-2-carboxylic acid]
Final form after slurry ([5]; slurried in MEK): converts to crystalline Form 1 | Final form after slurry ([5]; slurried in ethyl acetate): converts to crystalline Form 1 | Final form after slurry ([5]; slurried in methanol): converts to crystalline Form 1 | Final form after slurry ([5]; slurried in methyl THF): converts to crystalline Form 1 | Change in FTIR spectrum after storage [8]: unchanged FTIR | Equilibrium solubility relative to Form 1 ([9]; 24 hours): more than double | Concentration (solubility) ([9]; 1 hr): 83 µg/mL | Concentration (solubility) ([9]; 2 hr): 93 µg/mL | Concentration (solubility) ([9]; 3 hr): 95 µg/mL | Concentration (equilibrium solubility) [9]: 0.097 mg/mL

COc1ccc(C(=O)NC2(C(=O)O)Cc3ccccc3C2)cc1OCCc1cccc(C)c1 [Form 4, 2-(4-methoxy-3-(3-methylphenethoxy)benzamido)-2,3-dihydro-1H-indene-2-carboxylic acid]
Equilibrium solubility relative to Form 1 ([9]; 24 hours): more than double | Concentration (solubility) ([9]; 1 hr): 79 µg/mL | Concentration (solubility) ([9]; 2 hr): 89 µg/mL | Concentration (solubility) ([9]; 3 hr): 105 µg/mL | Concentration (equilibrium solubility) [9]: 0.102 mg/mL

COc1ccc(C(=O)NC2(C(=O)O)Cc3ccccc3C2)cc1OCCc1cccc(C)c1 [Forms 1, 2, 3]
Final form after slurry ([5]; slurried in MEK): Form 1 | Final form after slurry ([5]; slurried in methanol): Form 1 | Final form after slurry ([5]; slurried in methyl THF): Form 1

COc1ccc(C(=O)NC2(C(=O)O)Cc3ccccc3C2)cc1OCCc1cccc(C)c1 [mixture of Form 1 and Form 2]
Resulting form after slurry [6, 10]: Form 2 | Resulting form after slurry [6, 11]: Form 2 | Resulting form after slurry ([6]; slurried in MEK at 40° C.): Form 1 | Resulting form after slurry ([6]; slurried in MEK at 50° C.): Form 1 | Resulting form after slurry ([6]; slurried in MEK at 60° C.): Form 2 | Resulting form after slurry ([6]; slurried in MEK at 70° C.): Form 2 | Resulting form after slurry ([6]; slurried in methanol at 40° C.): Form 1 | Resulting form after slurry ([6]; slurried in methanol at 50° C.): Form 1

COc1ccc(C(=O)NC2(C(=O)O)Cc3ccccc3C2)cc1OCCc1cccc(C)c1 [mixtures of Form 4 and Form 1]
Final form after slurry ([5]; slurried in MEK): convert to Form 1 | Final form after slurry ([5]; slurried in methanol): convert to Form 1
